From PubChem BioAssay (NCI)
Where “and” joins values, the source holds several entries; their conditions need not be identical. Identical values can stand only once.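 Tested at 5 concentrations; 48 h exposure; 96-well plates; endpoints linearly interpolated, else capped at highest concentration. GI50 = concentration required for 50% inhibition of growth. TGI denotes the concentration required for complete inhibition of growth.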

How the values were obtained:
Test in all cases: NCI tumour cell line growth inhibition, 48 h
[1] = test system: ACHN renal
[2] = test system: HCT-15 colon
[3] = test system: K-562 leukemia
[4] = test system: MALME-3M melanoma
[5] = test system: MCF7 breast
[6] = test system: MOLT-4 leukemia
[7] = test system: OVCAR-4 ovarian
[8] = test system: SK-MEL-28 melanoma
[9] = test system: SK-MEL-5 melanoma
[10] = test system: TK-10 renal
[11] = test system: A498 renal
[12] = test system: LOX IMVI melanoma

SMILES | TGI [1] [µM] | TGI [2] [µM] | TGI [3] [µM] | TGI [4] | TGI [5] [µM] | TGI [6] [µM] | TGI [7] [µM] | TGI [8] [µM] | TGI [9] [µM] | TGI [10] [µM] | TGI [11] [µM] | TGI [12] [µM] | GI50 [11] [µM] | GI50 [2] [µM] | GI50 [3] [µM] | GI50 [5] [µM] | GI50 [6] [µM] | GI50 [9] [µM]
C[C@H]1S[C@H](c2c(F)cccc2F)n2c1nc1ccccc12 | > 100 | > 100 | > 100 | > 100 µM | > 100 | > 100 | > 100 | > 100 | 45.3 | > 100 | – | – | – | – | – | – | – | –
O=C(O)CCC(NC(=O)c1ccc(CNc2nc3cc(C(F)(F)F)ccc3nc2C(=O)O)cc1)C(=O)O (stereo unspecified) | > 100 | > 100 | > 100 | > 100 µM | – | > 100 | > 100 | > 100 | – | > 100 | > 100 | > 100 | – | – | – | – | – | –
COC1(C)CNCC(C)(C)NC(=O)C(C)(OC)CNCC(C)(C)NC1=O (stereo unspecified) | > 100 | > 100 | > 100 | > 100 µM | – | > 100 | > 100 | > 100 | > 100 | > 100 | > 100 | > 100 | – | – | – | – | – | –
O=C(CCN1CCCC1)c1ccc(Oc2ccc(F)cc2)cc1 | > 100 | > 100 | > 100 | > 100 µM | 32.3 | 43.3 | > 100 | > 100 | > 100 | > 100 | – | > 100 | – | – | – | – | – | –
c1cc2c3ccsc3c3sccc3c2s1 | > 100 | > 100 | > 100 | – | > 100 | > 100 | > 100 | > 100 | > 100 | > 100 | > 100 | > 100 | – | – | – | – | – | –
COc1ccc2[nH]c3c(O)c(-c4c(C)cc5c([nH]c6ccc(OC)cc65)c4O)c(C)cc3c2c1 | 8.15 | 8.2 | 8.13 | – | 8.43 | 7.52 | 7.22 | 9.64 | 8.18 | 8.19 | 8.35 | 8.06 | 4.78 | 4.2 | 4.04 | 4.49 | 3.23 | 4.34
COc1cc2cnc3c4cc(OC)c(OC(C)C)cc4ccc3c2cc1OC | > 100 | > 100 | > 100 | > 100 µM | – | > 100 | > 100 | > 100 | > 100 | > 100 | – | > 100 | – | – | – | – | – | –
CCOC(=O)c1csc(-c2cn(C)c3c2C(=O)C(OC)=CC3=O)n1 | > 100 | > 100 | > 100 | – | 69.8 | > 100 | > 100 | > 100 | 12.7 | > 100 | 73.1 | > 100 | – | – | – | – | – | –
COc1cc(-c2ccccc2)cn2c1nc1ccccc12 | 49.2 | 43.2 | 67.1 | 41.9 µM | 35.4 | 45.9 | – | 33.2 | 37.9 | – | – | 52.4 | – | – | – | – | – | –
CN1N=C(c2ccccc2)c2cc(Cl)ccc2N=C1N/N=C/c1ccc(N(C)C)cc1 | > 100 | > 100 | > 100 | – | > 100 | > 100 | > 100 | > 100 | > 100 | > 100 | – | – | – | – | – | – | – | –
COC(=O)/C(=N\N)C(C(=O)C(=O)Nc1nc(=S)[nH][nH]1)c1nc2ccc([N+](=O)[O-])cc2[nH]c1=O (stereo unspecified) | > 100 | > 100 | > 100 | > 100 µM | – | > 100 | > 100 | > 100 | > 100 | > 100 | > 100 | > 100 | – | – | – | – | – | –
COc1cc2c(cc1OC)[C@H]1C(COC(=O)Nc3ccccc3)CN1CC2 (stereo partly specified) | > 100 | > 100 | > 100 | > 100 µM | – | > 100 | > 100 | > 100 | > 100 | > 100 | > 100 | > 100 | – | – | – | – | – | –
Cc1cc(C)c(C(=O)C(C)C(c2ccccc2)c2ccc(Cl)cc2)c(C)c1 (stereo unspecified) | > 100 | > 100 | > 100 | 71.9 µM and > 100 µM | – | > 100 | > 100 | > 100 | > 100 | > 100 | – | – | – | – | – | – | – | –
CCOC(=O)c1nc2cc(F)cc(F)c2[nH]c1=O | > 100 | > 100 | > 100 | – | > 100 | > 100 | > 100 | > 100 | > 100 | > 100 | > 100 | > 100 | – | – | – | – | – | –
O=C1NC(N2CCCCC2)=N/C1=C\c1ccco1 | > 100 | > 100 | – | > 100 µM | > 100 | > 100 | > 100 | > 100 | > 100 | > 100 | – | > 100 | – | – | – | – | – | –
